{"source": "patent US11219607B2", "about": "“Methods for suppressing cancer-related cachexia” (Ohio State Innovation Foundation, priority 2013, dated 2022)", "assay_type_in_all_cases": "in vivo, CD2F1 mice", "key": {"[1]": {"test_system": "gastrocnemius muscle fibers of C-26 tumor-bearing mice", "experiment": "Morphometric analysis of muscle fiber size, C-26 model", "details": "day 15, tumor-bearing/vehicle 1297.6±638.8, tumor-free control 2503.5±917.5, mean±S.D.", "protocol": "Ten-μm sections were cut from frozen skeletal muscle samples using a cryostat (Leica) and then stained with H&E. Images were captured using an Olympus BX51 microscope (Olympus America, Inc.) and muscle fiber cross-sectional areas were determined using Olympus CellSens 1.11 software. Measurements were obtained from five different sections of muscle from each of five mice from each group.\nThe protective effect of AR-42 against muscle wasting was manifested by the abrogation of cachexia-induced reduction in skeletal muscle fiber size. […] The prominent shift in fiber size distribution to smaller cross-sectional area in cachectic muscles of tumor-bearing/vehicle mice was reversed by AR-42 (FIG. 2A, right)"}, "C-26 tumor-bearing mice [2]": {"test_system": "C-26 tumor-bearing mice", "experiment": "Survival and body weight comparison of HDAC inhibitors, C-26 model", "details": "day 21, 50 mg/kg every other day orally from day 6", "protocol": "(§1) In one aspect, tumors were established by subcutaneous injection of C-26 cells (0.5×10^6 cells in 0.1 ml) into the right flank of male CD2F1 mice (approximately 6 weeks of age; Harlan Laboratories, Indianapolis, Ind.)(11). Tumor-bearing mice, as well as tumor-free mice serving as non-cachectic controls, were randomized into groups that were treated with either AR-42 (50 mg/kg, p.o. by gavage, every other day; Arno Therapeutics, Inc., Flemington, N.J.) or vehicle (0.5% methylcellulose (w/v) and 0.1% Tween-80 (v/v) in sterile water) starting 6 days after cell injection. To investigate the effect of delayed treatment, treatments with drug and/or vehicle were started 6, 10 and 12 days after cancer cell injection.\nIn another aspect, the effects of AR-42 were compared to other HDAC inhibitors. […]\nThe effects of AR-42 were compared to other HDAC inhibitors (i.e., vorinostat and romidepsin) in C-26 tumor-bearing mice. Starting on day 6 after tumor cell injection, mice were treated continuously with AR-42 (50 mg/kg every other day, orally), vorinostat [50 mg/kg once daily, orally (13)], romidepsin [0.6 mg/kg twice weekly, i.p. (14)], or vehicle, until weight loss, as determined by daily body weight measurements and subtraction of tumor mass, reached 20% of starting weight. […]"}, "Atrogin-1/MAFbx mRNA": {"test_system": "Atrogin-1/MAFbx mRNA", "experiment": "qPCR of gastrocnemius muscle, C-26 model: Atrogin-1", "details": "C-26 tumor-bearing mice, 15 days after tumor cell injection, tumor-bearing/vehicle 29.4±3.5-fold, mean±S.D.", "protocol": "Total RNA was isolated from homogenized gastrocnemius muscles (n=3/group) with TRIzol reagent (Life Technologies, Carlsbad, Calif.) and then purified using the RNAeasy Mini Kit (Qiagen, Valencia, Calif.). qRT-PCR was performed as described previously (42) by using the Bio-Rad CFX96 Real-Time PCR Detection System with iQ SYBR Green Supermix (Bio-Rad, Hercules, Calif.). RNA-seq library generation and data analysis were performed at The Ohio State University Comprehensive Cancer Center (OSUCCC) Nucleic Acid Shared Resource.\nAR-42 was able to restore expression of Atrogin-1 (2.7±0.7-fold) and MuRF1 (1.1±0.2-fold) mRNA to basal levels […]."}, "TNF": {"test_system": "TNF", "experiment": "Serum cytokine profiling, C-26 model: TNF", "details": "C-26 tumor-bearing mice", "source_text": "Gastrocnemius muscles and sera were collected at day 17 post-cell injection from each treatment group (n=8/group). Muscle was submitted to Metabolon, Inc. (Durham, N.C.) for metabolomic analysis of 270 metabolic intermediates via proprietary mass spectrometry platforms. Serum was submitted to Eve Technologies (Alberta, Canada) for analysis of 32 cytokines using a mouse cytokine array (32-plex panel).\nTo shed light onto the mechanism by which AR-42 mediated its anti-cachectic effect, sera and gastrocnemius muscle from vehicle- or AR-42-treated tumor-free and C-26 tumor-bearing mice were used for cytokine profiling analysis and whole transcriptome shotgun sequencing (RNA-seq), respectively."}, "C-26 tumor-bearing mice [3]": {"test_system": "C-26 tumor-bearing mice", "experiment": "Delayed treatment in the C-26 model (body weight, tumor growth)", "protocol": "as §1\nIn those experiments, treatment was initiated early in the progression of cachexia when overt signs of wasting were undetectable. To investigate whether later initiation of AR-42 treatment remains protective against cachexia, C-26 tumor-bearing mice were treated with AR-42 (50 mg/kg, p.o., every other day) starting at 6, 10 and 12 days after tumor cell injection."}, "C-26 tumor-bearing mice [4]": {"test_system": "C-26 tumor-bearing mice", "experiment": "Forelimb grip strength measurement, C-26 delayed treatment", "details": "all drug-treated groups (start day 6, 10, 12); day 15 and 16", "protocol": "Forelimb grip strength was measured mice using a Digital Grip Strength Meter (Columbus Instruments, Columbus, Ohio). Five measurements were taken from each mouse, the average of which was designated as the mouse's grip strength.\nTo measure forelimb grip strength, each mouse was held by the base of its tail and lowered over the apparatus until its forepaws grasped the pull bar. The mouse was then gently pulled horizontally in a straight line away from the grip meter until the mouse released the bar, and the maximum force attained was recorded. Five measurements were taken from each mouse, the average of which was designated as the mouse's grip strength."}, "[5]": {"details": "50 mg/kg p.o. every other day, vehicle 19%"}}}
{"smiles": "CC(C)[C@H](C(=O)Nc1ccc(C(=O)NO)cc1)c1ccccc1", "note": "[AR-42, (S)—N-hydroxy-4-(3-methyl-2-phenylbutanamido)benzamide]", "values": [{"measurement": "mean cross-sectional area of muscle fibers", "setting": "[1]", "result": "2146.3±923.4", "unit": "μm^2"}, {"measurement": "cumulative survival (weight loss below 20% of starting weight)", "setting": "C-26 tumor-bearing mice [2]", "result": 100, "unit": "%"}, {"measurement": "Atrogin-1 mRNA level relative to tumor-free/vehicle control", "setting": "Atrogin-1/MAFbx mRNA", "result": "2.7±0.7", "unit": "fold"}, {"measurement": "effect on serum TNF levels", "setting": "TNF", "result": "no effect"}, {"measurement": "loss of body weight (tumor excluded) by day 17, treatment starting at day 6", "setting": "C-26 tumor-bearing mice [3]; [5]", "result": 6, "unit": "%"}, {"measurement": "loss of body weight (tumor excluded) by day 17, treatment starting at day 10", "setting": "C-26 tumor-bearing mice [3]; [5]", "result": 11, "unit": "%"}, {"measurement": "loss of body weight (tumor excluded) by day 17, treatment starting at day 12", "setting": "C-26 tumor-bearing mice [3]; [5]", "result": 12, "unit": "%"}, {"measurement": "effect on tumor growth, delayed treatment experiment", "setting": "C-26 tumor-bearing mice [3]; treatment from day 6, 10 or 12", "result": "without appreciable effects"}, {"measurement": "forelimb muscle strength (handgrip dynamometry) relative to vehicle-treated control", "setting": "C-26 tumor-bearing mice [4]", "result": "helped preserve forelimb muscle strength"}]}
